Measurements taken from US6479435B1, “Diaryl ethers and processes for their preparation and herbicidal and desiccant compositions containing them” (ISK Americas Incorporated, priority 1997, dated 2002).

Key:
Type in all cases: in vivo
[1] = system: Johnsongrass (Sorghum halepense, SORHA); test: Pre-emerge greenhouse herbicide test, phytotoxicity rating; conditions: 14 days after application, rating scale 0-100
Outline: (§1)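 Visual 0–100 injury rating (100 = all plants dead) taken 14 days after treatment. Rates of 125–1000 g ai/ha in acetone, 187 l/ha, were sprayed onto soil one day post-sowing; pots were surface-watered to incorporate, then bottom-watered.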

[2] = system: barnyardgrass (Echinochloa crusgalli, ECHCG); test: as above; conditions: 14 days after application, rating scale 0-100
Outline: as §1

[3] = system: common ragweed (Ambrosia artemisiifolia L., AMBEL); test: as above; conditions: 14 days after application, rating scale 0-100
Outline: as §1

[4] = system: green foxtail (Setaria viridis, SETVI); test: as above; conditions: 14 days after application, rating scale 0-100
Outline: as §1

[5] = system: ivyleaf morningglory (Ipomoea hederacea, IPOHE); test: as above; conditions: 14 days after application, rating scale 0-100
Outline: as §1

[6] = system: lambsquarters (Chenopodium album, CHEAL); test: as above; conditions: 14 days after application, rating scale 0-100
Outline: as §1

[7] = system: large crabgrass (Digitaria sanguinalis, DIGSA); test: as above; conditions: 14 days after application, rating scale 0-100
Outline: as §1

[8] = system: redroot pigweed (Amaranthus retroflexus, AMARE); test: as above; conditions: 14 days after application, rating scale 0-100
Outline: as §1

[9] = system: sicklepod (Cassia obtusifolia, CASOB); test: as above; conditions: 14 days after application, rating scale 0-100
Outline: as §1

[10] = system: velvetleaf (Abutilon theophrasti, ABUTH); test: as above; conditions: 14 days after application, rating scale 0-100
Outline: as §1

[11] = system: field corn (Zea mays L., var. Dekalb 535, CORN); test: Pre-emerge greenhouse test, crop damage rating; conditions: 14 days after application, rating scale 0-100
Outline: as §1

[12] = system: upland rice (Oryza sp., var.Tebonnet, RICE); test: Pre-emerge greenhouse test, crop damage rating; conditions: 14 days after application, rating scale 0-100
Outline: as §1

[13] = system: soybean (Glycine max L., var. Pella 86, SOY); test: Pre-emerge greenhouse test, crop damage rating; parameters: key to SOY crop damage rating: 0 = no damage, 100 = complete death of all plants; conditions: 14 days after application, rating scale 0-100
Outline: as §1

[14] = system: common ragweed (Ambrosia artemisiifolia L., AMBEL); test: Post-emerge greenhouse herbicide test, phytotoxicity rating; conditions: 14 days after application; for phytotoxicity rating AMBEL: scale 0-100
Outline: (§2)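 Scores use a 0 (no damage) to 100 (complete kill) scale, taken 14 days after a foliar spray. Acetone solutions with 0.25% v/v non-ionic surfactant were applied by track sprayer at 187 l/ha and 63-1000 g ai/ha to bottom-watered 2-3 leaf plants.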

[15] = system: Johnsongrass (Sorghum halepense, SORHA); test: as above; conditions: 14 days after application; for phytotoxicity rating SORHA: scale 0-100
Outline: as §2

[16] = system: barnyardgrass (Echinochloa crusgalli, ECHCG); test: as above; conditions: 14 days after application; for phytotoxicity rating ECHCG: scale 0-100
Outline: as §2

[17] = system: green foxtail (Setaria viridis, SETVI); test: as above; conditions: 14 days after application; for phytotoxicity rating SETVI: scale 0-100
Outline: as §2

[18] = system: ivyleaf morningglory (Ipomoea hederacea, IPOHE); test: as above; conditions: 14 days after application; for phytotoxicity rating IPOHE: scale 0-100
Outline: as §2

[19] = system: lambsquarters (Chenopodium album, CHEAL); test: as above; conditions: 14 days after application; for phytotoxicity rating CHEAL: scale 0-100
Outline: as §2

[20] = system: large crabgrass (Digitaria sanguinalis, DIGSA); test: as above; conditions: 14 days after application; for phytotoxicity rating DIGSA: scale 0-100
Outline: as §2

[21] = system: redroot pigweed (Amaranthus retroflexus, AMARE); test: as above; conditions: 14 days after application; for phytotoxicity rating AMARE: scale 0-100
Outline: as §2

[22] = system: sicklepod (Cassia obtusifolia, CASOB); test: as above; conditions: 14 days after application; for phytotoxicity rating CASOB: scale 0-100
Outline: as §2

[23] = system: velvetleaf (Abutilon theophrasti, ABUTH); test: as above; conditions: 14 days after application; for phytotoxicity rating ABUTH: scale 0-100
Outline: as §2

[24] = system: field corn (Zea mays L., var. Dekalb 535, CORN); test: Post-emerge greenhouse test, crop damage rating; conditions: 14 days after application; for crop damage rating CORN: scale 0-100
Outline: as §2

[25] = system: upland rice (Oryza sp., var.Tebonnet, RICE); test: Post-emerge greenhouse test, crop damage rating; conditions: 14 days after application; for crop damage rating RICE: scale 0-100
Outline: as §2

[26] = system: soybean (Glycine max L., var. Pella 86, SOY); test: Post-emerge greenhouse test, crop damage rating; parameters: key to crop damage rating SOY: 0-100 scale: 0 = no damage, 100 = complete death of all plants; conditions: 14 days after application; for crop damage rating SOY: scale 0-100
Outline: as §2

O=c1n(-c2cc(Oc3nc(Cl)ccc3C(F)(F)F)c(Cl)cc2F)c(=S)n2n1CCCC2 [Compound 8-27]
100: SETVI phytotoxicity rating ([4]; Rate 500 g al/ha) | CHEAL phytotoxicity rating ([6]; Rate 500 g al/ha) | AMARE phytotoxicity rating ([8]; Rate 125 g al/ha) | AMARE phytotoxicity rating ([8]; Rate 500 g al/ha) | ABUTH phytotoxicity rating ([10]; Rate 500 g al/ha) | phytotoxicity rating CHEAL ([19]; rate 500 g ai/ha) | phytotoxicity rating AMARE ([21]; rate 500 g ai/ha) | phytotoxicity rating CASOB ([22]; rate 500 g ai/ha) | phytotoxicity rating ABUTH ([23]; rate 500 g ai/ha)
5: crop damage rating CORN ([24]; rate 63 g ai/ha) | crop damage rating RICE ([25]; rate 500 g ai/ha)
85: phytotoxicity rating AMBEL ([14]; rate 500 g ai/ha)
60: SETVI phytotoxicity rating ([4]; Rate 125 g al/ha) | phytotoxicity rating AMBEL ([14]; rate 63 g ai/ha)
70: crop damage rating SOY ([26]; rate 63 g ai/ha)
20: phytotoxicity rating SORHA ([15]; rate 500 g ai/ha) | phytotoxicity rating DIGSA ([20]; rate 500 g ai/ha)
10: DIGSA phytotoxicity rating ([7]; Rate 125 g al/ha) | RICE crop damage rating ([12]; Rate 500 g al/ha) | phytotoxicity rating ECHCG ([16]; rate 500 g ai/ha) | phytotoxicity rating DIGSA ([20]; rate 63 g ai/ha) | crop damage rating CORN ([24]; rate 500 g ai/ha)
80: CHEAL phytotoxicity rating ([6]; Rate 125 g al/ha) | CASOB phytotoxicity rating ([9]; Rate 500 g al/ha) | phytotoxicity rating IPOHE ([18]; rate 500 g ai/ha) | phytotoxicity rating ABUTH ([23]; rate 63 g ai/ha) | crop damage rating SOY ([26]; rate 500 g ai/ha)
30: SORHA phytotoxicity rating ([1]; Rate 500 g al/ha) | IPOHE phytotoxicity rating ([5]; Rate 500 g al/ha) | phytotoxicity rating SORHA ([15]; rate 63 g ai/ha) | phytotoxicity rating CASOB ([22]; rate 63 g ai/ha)
50: DIGSA phytotoxicity rating ([7]; Rate 500 g al/ha) | ABUTH phytotoxicity rating ([10]; Rate 125 g al/ha) | phytotoxicity rating SETVI ([17]; rate 63 g ai/ha) | phytotoxicity rating SETVI ([17]; rate 500 g ai/ha) | phytotoxicity rating IPOHE ([18]; rate 63 g ai/ha)
90: phytotoxicity rating CHEAL ([19]; rate 63 g ai/ha) | phytotoxicity rating AMARE ([21]; rate 63 g ai/ha)
0: SORHA phytotoxicity rating ([1]; Rate 125 g al/ha) | ECHCG phytotoxicity rating ([2]; Rate 125 g al/ha) | ECHCG phytotoxicity rating ([2]; Rate 500 g al/ha) | AMBEL phytotoxicity rating ([3]; Rate 125 g al/ha) | AMBEL phytotoxicity rating ([3]; Rate 500 g al/ha) | IPOHE phytotoxicity rating ([5]; Rate 125 g al/ha) | CASOB phytotoxicity rating ([9]; Rate 125 g al/ha) | CORN crop damage rating ([11]; Rate 125 g al/ha) | CORN crop damage rating ([11]; Rate 500 g al/ha) | RICE crop damage rating ([12]; Rate 125 g al/ha) | SOY crop damage rating ([13]; Rate 125 g al/ha) | SOY crop damage rating ([13]; Rate 500 g al/ha) | phytotoxicity rating ECHCG ([16]; rate 63 g ai/ha) | crop damage rating RICE ([25]; rate 63 g ai/ha)

O=c1n(CCCF)nnn1-c1cc(Oc2ncccc2C(F)(F)F)c(Cl)cc1F [Compound 6-6]
100: phytotoxicity rating SETVI ([4]; 500 g ai/ha) | phytotoxicity rating CHEAL ([6]; 125 g ai/ha) | phytotoxicity rating CHEAL ([6]; 500 g ai/ha) | phytotoxicity rating DIGSA ([7]; 500 g ai/ha) | phytotoxicity rating AMARE ([8]; 500 g ai/ha) | phytotoxicity rating ABUTH ([10]; 500 g ai/ha) | CHEAL phytotoxicity rating (0-100) ([19]; 500 g al/ha)
90: CHEAL phytotoxicity rating (0-100) ([19]; 63 g al/ha)
70: SORHA phytotoxicity rating (0-100) ([15]; 500 g al/ha) | ECHCG phytotoxicity rating (0-100) ([16]; 500 g al/ha) | AMARE phytotoxicity rating (0-100) ([21]; 63 g al/ha)
30: phytotoxicity rating SORHA ([1]; 125 g ai/ha) | phytotoxicity rating AMBEL ([3]; 125 g ai/ha) | phytotoxicity rating IPOHE ([5]; 125 g ai/ha) | crop damage rating RICE ([12]; 500 g ai/ha) | CASOB phytotoxicity rating (0-100) ([22]; 500 g al/ha)
95: phytotoxicity rating SORHA ([1]; 500 g ai/ha) | phytotoxicity rating SETVI ([4]; 125 g ai/ha) | phytotoxicity rating AMARE ([8]; 125 g ai/ha) | IPOHE phytotoxicity rating (0-100) ([18]; 500 g al/ha) | AMARE phytotoxicity rating (0-100) ([21]; 500 g al/ha) | ABUTH phytotoxicity rating (0-100) ([23]; 500 g al/ha)
80: phytotoxicity rating ABUTH ([10]; 125 g ai/ha)
60: phytotoxicity rating ECHCG ([2]; 500 g ai/ha) | phytotoxicity rating AMBEL ([3]; 500 g ai/ha) | IPOHE phytotoxicity rating (0-100) ([18]; 63 g al/ha)
10: phytotoxicity rating CASOB ([9]; 125 g ai/ha) | crop damage rating SOY ([13]; 500 g ai/ha) | SETVI phytotoxicity rating (0-100) ([17]; 63 g al/ha) | DIGSA phytotoxicity rating (0-100) ([20]; 500 g al/ha) | SOY crop damage rating (0-100) ([26]; 63 g al/ha)
5: CORN crop damage rating (0-100) ([24]; 63 g al/ha)
20: phytotoxicity rating ECHCG ([2]; 125 g ai/ha) | phytotoxicity rating DIGSA ([7]; 125 g ai/ha) | AMBEL phytotoxicity rating (0-100) ([14]; 63 g al/ha) | AMBEL phytotoxicity rating (0-100) ([14]; 500 g al/ha) | ECHCG phytotoxicity rating (0-100) ([16]; 63 g al/ha) | RICE crop damage rating (0-100) ([25]; 63 g al/ha)
40: SETVI phytotoxicity rating (0-100) ([17]; 500 g al/ha) | RICE crop damage rating (0-100) ([25]; 500 g al/ha)
50: phytotoxicity rating IPOHE ([5]; 500 g ai/ha) | ABUTH phytotoxicity rating (0-100) ([23]; 63 g al/ha) | SOY crop damage rating (0-100) ([26]; 500 g al/ha)
15: CORN crop damage rating (0-100) ([24]; 500 g al/ha)
0: phytotoxicity rating CASOB ([9]; 500 g ai/ha) | crop damage rating CORN ([11]; 125 g ai/ha) | crop damage rating CORN ([11]; 500 g ai/ha) | crop damage rating RICE ([12]; 125 g ai/ha) | crop damage rating SOY ([13]; 125 g ai/ha) | SORHA phytotoxicity rating (0-100) ([15]; 63 g al/ha) | DIGSA phytotoxicity rating (0-100) ([20]; 63 g al/ha) | CASOB phytotoxicity rating (0-100) ([22]; 63 g al/ha)
